Common to all, as to assay type: biochemical, mice
Experiment [1] deals with Mitochondrial Permeability Transition Pore. In words: Mitochondrial swelling absorbance assay.
Method: Mitochondrial Swelling (Hit Validation, Confirmatory Assay, Concentration-Response, AID No. 720722)
Assay buffer: 250 mM sucrose, 10 mM MOPS-Tris, 0.01 mM EGTA-Tris, 1.0 mM phosphoric acid-Tris, pH 7.4 • Solution 1. 5.0 mM glutamate and 2.5 mM malate in Assay buffer. • Solution 2. 80-120 μM CaCl2) depending on mitochondrial activity in Solution 1. Note: Concentration of Ca^2+ in the assay is dependent upon the activity of the isolated mitochondria which is determined via a calcium titration just before each screening batch. A Ca^2+ concentration is used that allows for the arrival at a 2:1 window at the 20 minute time period. • Solution 3. 1% DMSO in Solution 2. • Solution 4. 2.0 mM EGTA-Tris, pH 7.4 in Solution 3. • Solution 5. 0.5 mg/mL mitochondria in Assay Buffer.
Protocol Summary: • 1. Freshly isolate mitochondria, prepare solutions according to the recipes in the reagent section • 2. Dispense 100 μL of Solution 4 to Columns 1-2 and Solution 3 Columns 11-12 (positive and negative controls, respectively) of the 96-well clear assay plate (Falcon 353072) • 3. Dispense 200 μL of Solution 1 to Row A Columns 3-10. • 4. Next, dispense 100 μL of Solution 3 to Rows B-H Columns 3-10. • 5. Add 4 μL of 5 mM test compounds in DMSO to Row A Columns 3-10, perform 1:2 serial dilutions Row A to H Columns 3-10. • 6. Finally, dispense 100 μL of Solution 5 in all wells. The reaction starts. • 7. Keep the plate at room temperature for 20 minutes and then read absorbance at 540 nm on MultiSkan EX, Thermo Scientific.
Concentration-Response Assay to Identify Compounds that Inhibit Mitochondrial Swelling (SAR Assay AID No. 743359)
Assay buffer: 250 mM sucrose, 10 mM MOPS-Tris, 0.01 mM EGTA-Tris, 1.0 mM phosphoric acid, pH 7.4 • Solution 1. 5.0 mM glutamate and 2.5 mM malate in Assay Buffer. • Solution 2. 100-120 μM CaCl2) depending on mitochondrial activity in Solution 1. Note: Concentration of Ca^2+ in the assay is dependent upon the activity of the isolated mitochondria which is determined via a calcium titration just before each screening batch. A Ca^2+ concentration is used that allows for the arrival at a 2:1 window at the 20 minute time period. • Solution 3. 1% DMSO in Solution 2. • Solution 4. 2.0 mM EGTA-Tris, pH 7.4 in Solution 3. • Solution 5. 0.5 mg/mL mitochondria in Assay Buffer.
Protocol Summary: • 1. Freshly isolate mitochondria, prepare solutions according to the recipes in the Reagent Section. • 2. Dispense 100 μL of Solution 4 to Columns 1-2 and Solution 3 Columns 11-12 (positive and negative controls, respectively) of the 96-well clear assay plate (Falcon 353072). • 3. Dispense 200 μL of Solution 1 to Row A Columns 3-10. • 4. Next, dispense 100 μL of Solution 3 to Rows B-H Columns 3-10. • 5. Add 4 μL of 5 mM test compounds in DMSO to Row A Columns 3-10, perform 1:2 serial dilutions Row A to H Columns 3-10. • 6. Finally, dispense 100 μL of Solution 5 in all wells. The reaction starts. • 7. Keep the plate at room temperature for 20 minutes and then read absorbance at 540 nm on MultiSkan EX, Thermo Scientific.
For the next experiment, the system named is mtPTP. Briefly: Calcium retention capacity (CRC) assay on isolated mitochondria. As to conditions: for Calcium Retention Capacity (CRC/CRC0 at 12.5 μM): 12.5 μM compound; for Calcium Retention Capacity (CRC/CRC0) at 1.56 μM: 1.56 μM compound.
Another experiment concerns IMM potential. In words: Rhodamine 123 (Rh123) uptake counterscreen.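 Note: isolated mitochondria respiring on glutamate plus malate in sucrose MOPS-Tris buffer at pH 7.4, Rh123 added with the organelles, compounds tested across a twofold dilution series.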 For orientation: The purpose of a counterscreen is to sort out artefacts and off-target activity.
Where [2] appears, read: Table 2, average of >3 experiments ± SEM.
The mark [3] stands for this setting: Table 2, average of >3 experiments ± SEM, read-out: Rh123 Assay EC50.
Where [4] appears, read: Table 1, read-out: Rh123 uptake (EC50).

Each structure is given as a SMILES string. Like-named read-outs stand apart in the source and are kept apart here.

Method for IMM potential: Assay buffer: 250 mM sucrose, 10 mM MOPS-Tris, 0.01 mM EGTA-Tris, 1.0 mM phosphoric acid-Tris, pH 7.4 • Solution 1. 5.0 mM glutamate and 2.5 mM malate in Assay Buffer. • Solution 2. 1% DMSO in Solution 1. • Solution 3. 0.8 μM FCCP (the stock 40 μM in DMSO) in Solution 1. • Solution 4. 0.5 mg/mL mitochondria and 0.8 μM Rh123 in Assay Buffer.
Protocol Summary: • 1. Freshly isolate mitochondria, prepare solutions according to the recipes in the Reagent Section. • 2. Dispense 100 μL of Solution 3 to Columns 1-2 and Solution 2 Columns 11-12 (positive and negative controls, respectively) of the 96-well black assay plate (Falcon 353376). • 3. Dispense 200 μL of Solution 1 to Row A Columns 3-10. • 4. Next, dispense 100 μL of Solution 2 to Rows B-H Columns 3-10. • 5. Add 4 μL of 10 mM test compounds in DMSO to Row A Columns 3-10, perform 1:2 serial dilutions Row A to H Columns 3-10. • 6. Finally, dispense 100 μL of Solution 4 in all wells. The reaction starts. • 7. Keep the plate at room temperature for 5 minutes and then read fluorescence (excitation 485 nm, emission 538 nm) on Fluoroskan Ascent FL, Thermo Scientific.
Concentration-Response Counterscreen Assay to Identify Compounds that Prevent Mitochondrial Swelling Via Interference with the IMM Potential (SAR Assay AID No. 743361)
Assay buffer: 250 mM sucrose, 10 mM MOPS-Tris, 0.01 mM EGTA-Tris, 1.0 mM phosphoric acid-Tris, pH 7.4 • Solution 1. 5.0 glutamate and 2.5 mM malate in Assay Buffer. • Solution 2. 1% DMSO in Solution 1. • Solution 3. 0.8 μM FCCP (the stock 40 μM in DMSO) in Solution 1. • Solution 4. 0.5 mg/mL mitochondria and 0.8 μM Rh123 in Assay Buffer.
Method for mtPTP: Assay buffer: 250 mM sucrose, 10 mM MOPS-Tris, 0.01 mM EGTA-Tris, 1.0 mM phosphoric acid-Tris, pH 7.4. • Solution 1. 10 mM glutamate and 5 mM malate in Assay buffer. • Solution 2. 1% DMSO in Solution 2. • Solution 3. 0.5 mg/mL mitochondria and 1.0 μM Calcium Green-5N in Assay Buffer. • Solution 4. 0.25 mM CaCl2).
Protocol Summary: • 1. Freshly isolate mitochondria, prepare solutions according to the recipes in the Reagent Section. • 2. Dispense 100 μL of Solution 2 to Columns 1-2 (negative control) of the 96-well black assay plate (Falcon 353376). • 3. Dispense 200 μL of Solution 1 to Row A Columns 3-12. • 4. Next, dispense 100 μL of Solution 2 to Rows B-H Columns 3-12. • 5. Add 4 μL of 5 mM test compounds in DMSO to Row A Columns 3-12, perform 1:2 serial dilutions Row A to H Columns 3-12. • 6. Finally, dispense 100 μL of Solution 3 in all wells. • 7. Experiment starts. Read Calcium Green-5N fluorescence (excitation 485 nm, emission 538 nm) and perform a train of 4 μL Solution 4 additions with Fluoroskan Ascent FL, Thermo Scientific.

As to `O=C(Nc1ccc(CN2CCCCC2)cc1)c1ccc(F)c(OCc2ccccc2)c1` [Entry 2], the EC50 in experiment [1] (setting [2]) was 0.372 ± 0.028 µM; in the experiment with IMM potential (setting [3]) it was greater than 100 µM. In addition, the “Calcium Retention Capacity (CRC/CRC0 at 12.5 μM)” value in the experiment on mtPTP (setting [2]) was determined as 13.3 ± 1.0.
In the same order, the values of `O=C(Nc1ccc(CN2CCCCC2)cc1)c1cc(OCc2ccccc2)ccc1Cl` [Entry 3] are 3.6 ± 0.17 µM, 75.7 ± 1.8 µM and 2.26 ± 0.11.
In the same order, the values of `O=C(Nc1ccc(CN2CCOCC2)cc1)c1ccc(Cl)c(OCc2ccccc2)c1` [Entry 4] are 0.403 ± 0.031 µM, greater than 100 µM and 8.81 ± 0.39.
Take `CN1CCN(Cc2ccc(NC(=O)c3ccc(Cl)c(OCc4ccccc4)c3)cc2)CC1` [Entry 5]: the values for the EC50 (in experiment [1] (setting [2]); with IMM potential (setting [3])) were 0.423 ± 0.028 µM and 49.6 ± 4.3 µM, respectively. In addition, the “Calcium Retention Capacity (CRC/CRC0 at 12.5 μM)” value in the experiment on mtPTP (setting [2]) was found to be 14.1 ± 1.1.
As to `O=C(Nc1cccc(CN2CCNCC2)c1)c1ccc(Cl)c(OCc2ccccc2)c1` [Entry 6], the EC50 turned out to be 0.286 ± 0.027 µM in experiment [1] (setting [2]) and 42.6 ± 3.1 µM with IMM potential (setting [3]). Further, the “Calcium Retention Capacity (CRC/CRC0 at 12.5 μM)” value with mtPTP (setting [2]) was 16.1 ± 1.5.
With `O=C(Nc1ccc(CN2CCNCC2)cc1)c1ccc(Cl)c(OCc2ccccc2)c1` [Entry 7], the EC50 in experiment [1] (setting [2]) worked out at 0.206 ± 0.021 µM; with IMM potential (setting [3]), 46.4 ± 3.2 µM. Also, the “Calcium Retention Capacity (CRC/CRC0 at 12.5 μM)” value in the experiment with mtPTP (setting [2]) is recorded as 18.3 ± 1.3.
In the same order, the values of `O=C(Nc1ccc(CN2CCCCC2)cc1)c1ccc(Cl)c(OCc2cccc(Cl)c2)c1` [Entry 8] are 1.19 ± 0.33 µM, 23.2 ± 1.3 µM and 6.50 ± 1.20.
Take `O=C(Nc1ccc(CN2CCCCC2)cc1)c1ccc(Cl)c(OCc2ccccc2Cl)c1` [Entry 9]: the EC50 in experiment [1] (setting [2]) was 4 ± 0.66 µM; with IMM potential (setting [3]), greater than 100 µM. Besides, the “Calcium Retention Capacity (CRC/CRC0 at 12.5 μM)” value in the experiment with mtPTP (setting [2]) came to 2.37 ± 0.41.
`O=C(Nc1ccc(CN2CCCCC2)cc1)c1ccc(Cl)c(OCc2ccc(Cl)cc2)c1` [Entry 10]: the EC50 is 1.24 ± 0.39 µM in experiment [1] (setting [2]) and 24.7 ± 1.5 µM in the experiment on IMM potential (setting [3]). Further, the “Calcium Retention Capacity (CRC/CRC0 at 12.5 μM)” value in the experiment with mtPTP (setting [2]) was found to be 5.91 ± 0.38.
In the same order, the values of `O=C(Nc1ccc(CN2CCCCC2)cc1)c1ccc(Cl)c(OCc2ccccc2F)c1` [Entry 11] are 1.39 ± 0.17 µM, greater than 100 µM and 2.59 ± 0.54.
Turning to `O=C(Nc1ccc(CN2CCCCC2)cc1)c1ccc(Cl)c(OCc2ccc(F)cc2)c1` [Entry 12], the values for the EC50 (in experiment [1] (setting [2]); in the experiment with IMM potential (setting [3])) were 0.49 ± 0.08 µM and 28.6 ± 1.1 µM, respectively. Also, in the experiment with mtPTP (setting [2]), the “Calcium Retention Capacity (CRC/CRC0 at 12.5 μM)” value turned out to be 10.1 ± 0.8.
In the same order, the values of `COc1ccc(/C=C/C(=O)Nc2cccc(Cl)c2)cc1O` [Entry 13] are 0.073 ± 0.007 µM, greater than 100 µM and 7.67 ± 0.35.
Take `COc1ccc(-c2cc(C(=O)Nc3cc(Cl)cc(Cl)c3)no2)cc1O` [drawing 126]: the EC50 in experiment [1] (Table 1, average ± SEM) is 0.277 ± 0.001 µM; in the experiment on IMM potential (setting [4]), greater than 100 µM. Besides, in the experiment with mtPTP (Table 1, average ± SEM), the “Calcium Retention Capacity (CRC/CRC0) at 1.56 μM” value is 1.17 ± 0.11 (at 1.56 μM).
For `O=C(Nc1cccc(Cl)c1Cl)c1cc(-c2ccc(F)c(O)c2)on1` [drawing 136], the EC50 was 0.0554 ± 0.0041 µM in experiment [1] (Table 1, average ± SEM) and greater than 100 µM in the experiment on IMM potential (setting [4]). In addition, in the experiment with mtPTP (Table 1, average ± SEM), the “Calcium Retention Capacity (CRC/CRC0 at 12.5 μM)” value is given as 9.37 ± 0.65.
For the molecule `O=C(Nc1cc(Cl)cc(Cl)c1)c1cc(-c2ccc(F)c(O)c2)on1` [drawing 140], the EC50 was 0.0756 ± 0.0092 µM in experiment [1] (Table 1, unit inferred, average ± SEM) and greater than 100 µM in the experiment with IMM potential (setting [4]). Further, the “Calcium Retention Capacity (CRC/CRC0 at 12.5 μM)” value in the experiment on mtPTP (Table 1, average ± SEM) came to 7.14 ± 0.69.
Regarding `Cc1c(Cl)cccc1NC(=O)c1cc(-c2ccc(F)c(O)c2)on1` [drawing 141], the EC50 in experiment [1] (Table 1, average ± SEM) was 0.00089 ± 0.000141 µM; with IMM potential (setting [4]) it was greater than 100 µM. Besides, the “Calcium Retention Capacity (CRC/CRC0) at 1.56 μM” value with mtPTP (Table 1, average ± SEM) is listed as 12.14 ± 0.55 (at 1.56 μM).
Turning to `COc1ccc(/C=C/C(=O)Nc2cccc(Cl)c2)cc1O` [drawing 143], the EC50 in experiment [1] (Table 1, average ± SEM) is 0.125 ± 0.0071 µM; in the experiment on IMM potential (setting [4]) it was greater than 100 µM. Also, the “Calcium Retention Capacity (CRC/CRC0 at 12.5 μM)” value in the experiment with mtPTP (Table 1, average ± SEM) stood at 11.05 ± 1.35.
In the same order, the values of `COc1ccc(Cl)cc1C(=O)Nc1ccc(CCN2CCNCC2)cc1` [drawing 145] are 5.85 ± 0.344 µM, greater than 100 µM and 1.37 ± 0.02.
Take `COc1ccc(Cl)cc1C(=O)Nc1ccc(CCN2CCN(C(=O)OC(C)(C)C)CC2)cc1` [drawing 148]: the EC50 was 7.61 ± 0.839 µM in experiment [1] (Table 1, average ± SEM) and greater than 100 µM in the experiment with IMM potential (setting [4]). For the same molecule, the “Calcium Retention Capacity (CRC/CRC0 at 12.5 μM)” value in the experiment on mtPTP (Table 1, average ± SEM) is recorded as 1.37 ± 0.02.
In the same order, the values of `COc1ccc(Cl)cc1C(=O)Nc1ccc(CN2CCNCC2)cc1` [drawing 151] are 6.87 ± 0.423 µM, greater than 100 µM and 1.24 ± 0.04.
In the case of `COc1ccc(Cl)cc1C(=O)Nc1ccc(CN2CCNCC2)cc1` [drawing 153], the EC50 in experiment [1] (Table 1, average ± SEM) was 2.15 ± 0.1 µM; in the experiment with IMM potential (setting [4]), greater than 100 µM. In addition, the “Calcium Retention Capacity (CRC/CRC0 at 12.5 μM)” value with mtPTP (Table 1, average ± SEM) was determined as 1.65 ± 0.06.
In the same order, the values of `COc1ccc(Cl)cc1C(=O)Nc1ccc(CCN2CCNCC2)cc1` [drawing 154] are 7.25 ± 0.526 µM, greater than 100 µM and 1.31 ± 0.03.
With `O=C(Nc1cccc(Cl)c1)c1cc(-c2cccc(O)c2)on1` [drawing 182], the EC50 in experiment [1] (Table 1, average ± SEM) was 0.0788 ± 0.0058 µM; in the experiment with IMM potential (setting [4]), greater than 100 µM. The “Calcium Retention Capacity (CRC/CRC0) at 1.56 μM” value in the experiment with mtPTP (Table 1, average ± SEM) was 4.13 ± 0.17 (at 1.56 μM).
As for `O=C(Nc1cc(Cl)cc(Cl)c1)c1cc(-c2ccc(F)c(O)c2)on1` [drawing 191], the EC50 was 0.076 ± 0.0092 µM in experiment [1] (Table 1, average ± SEM) and greater than 100 µM in the experiment on IMM potential (setting [4]). Moreover, the “Calcium Retention Capacity (CRC/CRC0 at 12.5 μM)” value with mtPTP (Table 1, average ± SEM) is listed as 11.22 ± 1.22.
In the same order, the values of `O=C(Nc1cccc(Cl)c1Cl)c1cc(-c2ccc(F)c(O)c2)on1` [drawing 193] are 0.071 ± 0.0011 µM, greater than 100 µM and 11.21 ± 1.38.
In the same order, the values of `COc1ccc(-c2cc(C(=O)Nc3cc(Cl)ncc3C)no2)cc1O` [drawing 202] are 0.366 ± 0.0475 µM, greater than 100 µM and 4.27 ± 0.40.

What is called EC50 is the midpoint of the concentration-response curve.

(Values after patent US20240067600A1, “SMALL MOLECULE INHIBITORS OF THE MITOCHONDRIAL PERMEABILITY TRANSITION PORE (mtPTP)” (UNIVERSITY OF KANSAS, priority 2014, published 2024).)
